Experiments:
[1] = system: IL-6 production in human skin fibroblast CCD-39SK cells; experiment: GR-mediated transrepression: IL-1β-stimulated IL-6 production in human skin fibroblast CCD-39SK cells; type: cell-based; conditions: IL-1β 1 ng/ml
Protocol: 1. IL-1,3-stimulated IL-6 Production in Human Skin Fibroblast CCD-39SK Cells:
Briefly, human skin fibroblast CCD-39SK cells (20,000 cells/well), obtained from ATCC are seeded in 96-well plates in […] growth medium supplemented with 10% FBS, 100 U/ml penicillin, 100 ug/ml streptomycin and 2 mmol/L L-glutamine. Cells are maintained in a humidified chamber with 5% CO2 at 37° C. Test compounds are added to the wells in various concentrations ranging from a final concentration of about […] to 4.64 μM. 0.1 μM of dexamethasone is used as a positive control. 1-hour post treatment with test compound, IL-1β is added at final concentration of 1 ng/ml; and the reaction mixture is incubated overnight. 10 μl of supernatant is removed from each well and IL-6 concentrations are determined using an ELISA kit, with IL-6 concentrations being quantified by reading absorbance at 450 nm.

[2] = target: T1, human GR (glucocorticoid receptor) (Homo sapiens, UniProt P04150); experiment: Nuclear hormone receptor competition binding assay, GR
T1 construct: expressed in transfected cells; host or cells: HEK293 (293-GR lysate)
T1 sequence (P04150 1-777): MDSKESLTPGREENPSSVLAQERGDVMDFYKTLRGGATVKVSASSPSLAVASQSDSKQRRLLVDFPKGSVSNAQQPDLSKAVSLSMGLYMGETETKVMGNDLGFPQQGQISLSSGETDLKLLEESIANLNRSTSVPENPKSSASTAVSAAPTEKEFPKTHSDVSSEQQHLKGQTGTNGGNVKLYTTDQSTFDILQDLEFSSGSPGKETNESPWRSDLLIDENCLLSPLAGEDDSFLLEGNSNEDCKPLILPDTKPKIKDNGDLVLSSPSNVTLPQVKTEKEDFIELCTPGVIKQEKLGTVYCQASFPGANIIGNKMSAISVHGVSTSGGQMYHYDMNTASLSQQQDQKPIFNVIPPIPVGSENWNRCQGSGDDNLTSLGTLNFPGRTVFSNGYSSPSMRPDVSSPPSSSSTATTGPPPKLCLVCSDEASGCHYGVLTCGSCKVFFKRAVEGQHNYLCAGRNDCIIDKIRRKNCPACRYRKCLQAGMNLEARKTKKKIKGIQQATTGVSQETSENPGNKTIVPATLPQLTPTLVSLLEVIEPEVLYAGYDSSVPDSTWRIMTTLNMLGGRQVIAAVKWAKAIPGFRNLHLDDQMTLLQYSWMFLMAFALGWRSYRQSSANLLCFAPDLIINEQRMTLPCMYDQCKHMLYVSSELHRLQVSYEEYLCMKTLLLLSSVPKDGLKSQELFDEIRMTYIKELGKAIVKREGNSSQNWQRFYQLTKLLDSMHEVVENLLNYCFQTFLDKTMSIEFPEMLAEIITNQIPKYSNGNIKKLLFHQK
Protocol: Cell lysates from human embryonic kidney HEK293 cells overexpressing human GR (glucocorticoid receptor), AR (androgen receptor), MR (mineralocorticoid receptor), or PR (progesterone receptor) are used for receptor-ligand competition binding assays to determine Ki values.
Briefly, steroid receptor competition binding assays are run in a buffer containing 20 mM Hepes buffer (pH=7.6), 0.2 mM EDTA, 75 mM NaCl, 1.5 mM MgCl2, 20% glycerol, 20 mM sodium molybdate, 0.2 mM DTT (dithiothreitol), 20 μg/ml aprotinin and 20 μg/ml leupeptin. Typically, steroid receptor binding assays include radio-labeled ligands, such as 0.3 nM [^3H]-dexamethasone for GR binding, 0.36 nM [^3H]-methyltrienolone for AR binding, 0.25 nM [^3H]-aldosterone for MR binding, and 0.29 nM [^3H]-methyltrienolone for PR binding, and either 20 μg 293-GR lysate, 22 μg 293-AR lysate, 20 μg 293-MR lysate or 40 μg 293-PR lysate per well. Assays are typically run in 96-well format. Competing test compounds are added at various concentrations ranging from about 0.01 nM to 10 μM. Non-specific binding is determined in the presence of 500 nM dexamethasone for GR binding, 500 nM aldosterone for MR binding, or 500 nM methyltrienolone for AR and PR binding. […] After an incubation of 2 hours, plates are read in a Wallac Microbeta counter. […]

- Ki ([2]; HEK293 lysate overexpressing human GR, [3H]-dexamethasone, mean of n=7): ~0.2 nM
- greater affinity for GR relative to each of human MR, AR, and PR ([2]; ratio of binding affinities): ≥ 15 fold
SMILES: CC/C(=C1\c2ccc(F)cc2OCc2ncccc21)c1cccc(NS(C)(=O)=O)c1 [Compound (I), (E)-N-{3-[1-(8-Fluoro-11H-10-oxa-1-aza-dibenzo[a,d]cyclohepten-5-ylidene)-propyl]-phenyl}-methanesulfonamide]
- IC50 ([1]; Homo sapiens, Skin fibroblast, average of n=15, read-out: IC50, inhibition of IL-6 expression): ~8.5 nM
- maximal inhibition of the endogenous expression of IL-6 ([1]; n=15): ≥ 90%

Source: patent US8101761B2, “(E)-N-{3-[1-(8-fluoro-11H-10-OXA-1-AZA-dibenzo [A,D] cyclohepten-5ylidene)-propyl]-phenyl}-methanesulfonamide as glucocorticoid receptor modulator for the treatment of rheumatoid arthritis” (Eli Lilly and Company, priority 2008, dated 2012)
